Assay results taken from US7553821B2, “Methods for selectively modulating survivin apoptosis pathways” (Yale University, priority 2000, dated 2009).
“Also recorded” adds a separate entry of the source.

Legend:
[1] = tested on: F5.C4 tumors; test: Effect on established F5.C4 tumors in mice; type: in vivo
Protocol: Error bars indicate standard deviation. Also shown are 5 representative growth curves from 15 animals in which tet was withheld (day 0) upon tumor formation (no symbols).
Next, the effect of survivin Thr^34→Ala on established tumors was assessed. Fifteen mice were injected with F5.C4 cells and tet was provided to permit tumor formation. Once tumors became apparent (20-50 mm^3), tet was withheld from the drinking water and tumors were monitored for 5 weeks. […] Rather, a spectrum of growth curves with some tumors failing to grow at all after tet was withdrawn was observed (FIG. 10A). […] In the two small F5.C4 tumors that formed in the absence of tet (Table I), a similar pattern of apoptotic cell death was seen (not shown).

[2] = target: T1, caspase-9 (Homo sapiens, UniProt P55211); test: Co-immunoprecipitation of survivin and caspase-9 from HeLa cells; type: binding; settings: viable HeLa cells 24 h after transfection
T1 construct: immunoprecipitated with an antibody to HA followed by Western blotting with an antibody to caspase-9; endogenous in cells; host or cells: HeLa
T1 sequence (P55211 1-416): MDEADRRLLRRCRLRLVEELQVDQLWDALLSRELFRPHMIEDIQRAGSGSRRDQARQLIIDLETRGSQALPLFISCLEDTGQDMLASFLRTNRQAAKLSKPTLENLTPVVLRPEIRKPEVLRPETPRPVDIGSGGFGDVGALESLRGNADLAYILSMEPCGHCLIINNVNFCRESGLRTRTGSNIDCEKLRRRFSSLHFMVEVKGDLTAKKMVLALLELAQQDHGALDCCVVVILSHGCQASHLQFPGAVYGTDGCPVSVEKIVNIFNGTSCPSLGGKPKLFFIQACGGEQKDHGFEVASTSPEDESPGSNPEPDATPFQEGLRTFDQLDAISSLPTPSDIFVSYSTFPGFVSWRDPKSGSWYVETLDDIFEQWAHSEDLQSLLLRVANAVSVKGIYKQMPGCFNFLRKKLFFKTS
Protocol: (§1) Asynchronously growing HeLa cells were transfected with HA-wild type survivin (WT) or HA-survivin(T34A) (T34A), detergent-solubilized after 24 h and immunoprecipitated with an antibody to HA followed by Western blotting with an antibody to caspase-9. Arrow, position of 46 kDa proform caspase-9.
(§2) HeLa cells were transfected with the indicated HA-constructs, synchronized to the G1/S boundary by a 16-h treatment with thymidine and released. Aliquots of the various cultures were immunoprecipitated at the indicated time intervals with an antibody to HA, and immunoblotted with antibodies to caspase-9 or HA. P, pellet; S, supernatant. For all panels, molecular weight markers are indicated on the left.
(§3) Transfection experiments. For transient transfection, HeLa cells in C-6 tissue culture plates (Costar, Cambridge, Mass.) at ˜60-70% confluency, were incubated in 1 ml of serum-free OptiMEM medium (Life Technologies, Gaithersburg, Md.) for 20 min, and transfected with 2.5 μg of the various plasmid cDNAs plus 9 μl Lipofectamine (Life Technologies). After a 5 h incubation at 37° C., the mixture was aspirated and substituted with complete growth medium for 48-72 h. […] Gated GFP-expressing cells were analyzed for DNA content by flow cytometry on a FACSort (Becton Dickinson, San Jose, Calif.) using a Cell Quest software. […]

[3] = tested on: caspase-9; test: as above; type: binding; settings: synchronized HeLa cells entering mitosis 12 h after thymidine release
Protocol: as §1, §2, §3

## survivin(T34A): dominant-negative, non-phosphorylatable survivin mutant with Thr34→Ala substitution, expressed from transfected cDNA (also HA- or GFP-tagged)
[1]; F5.C4 tumors 20-50 mm^3 at withdrawal, monitored for 5 weeks
  growth of established tumors after tet withdrawal: None of the tumors grew at a rate comparable to F5.C4 tumors in animals maintained on tet
[1]; F5.C4 tumors, tet withdrawn, listed as survivin Thr^34→Ala
  histologic analysis of tumors after transgene induction: massive areas of necrosis and prominent cellular apoptosis by TUNEL; also recorded: lack of normal mitotic figures and the presence of aberrant mitoses
[2]
  caspase-9 associated with HA immunoprecipitates by Western blotting: presence of associated ˜46 kDa proform caspase-9
[3]
  caspase-9 associated with HA immunoprecipitates by Western blotting: did not contain associated proform or active caspase-9 bands
